The results in this text go back to the NIST ThermoML archive (doi:10.1016/j.jct.2008.10.013).

Numbers after ± are expanded uncertainties.

For this data set the following is noted: 298.15 K; 101.33 kPa; Liquid; Vibrating tube method.
By mass density is commonly meant the mass of a sample divided by its volume. As to `C=C(C)[C@H]1CC=C(C)CC1` [(R)-1-methyl-4-(1-methylethenyl)cyclohexene], the mass density worked out at 837.31 ± 0.31 kg/m3.

`CCO` [ethanol]: the mass density came out at 785.24 ± 0.19 kg/m3.

`CO` [methanol]: the mass density was found to be 786.62 ± 0.17 kg/m3.
